Experimental data reported in paper PMC12396409, “Screening and hit evaluation of a microbial metabolite library against the pathogenic Plasmodium falciparum and Toxoplasma gondii parasites” (International Journal for Parasitology: Drugs and Drug …, 2025).
Counter-ions that a name gives are not always drawn. Like-named read-outs stand apart in the source and are kept apart here.

How the values were obtained:
[1] = test system: P. falciparum 3D7 parasites; assay: P. falciparum growth inhibition assay, 1-cycle (72 h treatment), SYBR DNA staining (library screen at 2 μg/mL and dose-response); format: cell-based, Plasmodium falciparum; conditions: for activity at 2 µg/mL: Plasmodium falciparum, 3D7; P. falciparum, 2 μg/mL, 72 h; read-out: 1) Growth (%) at 72 h
[2] = test system: P. falciparum 3D7 parasites; assay: P. falciparum growth inhibition assay, 2-cycle (120 h treatment), delayed-death screen and dose-response; format: cell-based, Plasmodium falciparum; conditions: for 2) Growth (%) at 120 h / 3) Fold change (72 h/120 h): P. falciparum, 2 μg/mL; for 3) Fold change (72 h/120 h): growth at 72 h / growth at 120 h; for activity at 2 µg/mL: Plasmodium falciparum, 3D7; P. falciparum, 2 μg/mL, 120 h; read-out: 2) Growth (%) at 120 h
[3] = test system: T. gondii RH strain (RH-Tub-eYFP) tachyzoites; assay: microbe, parasite or virus in culture; format: cell-based, Toxoplasma gondii; conditions: 72 h, 72 h; for percent parasite growth at 2 µg/mL: Toxoplasma gondii; for Mean / Replicate 1 / Replicate 2: T. gondii, 2 μg/mL; for Mean: mean of both replicates, growth (% of control); for Replicate 1 / Replicate 2: values are growth (% of control)
[4] = 3D7, 72 h treatment, mean ± S.D., n ≥ 3, read-out: IC50 (μM), P. falciparum
[5] = Plasmodium falciparum, 3D7, 72 h treatment, mean ± S.D., n ≥ 3, read-out: IC50 (μM), P. falciparum
[6] = P. falciparum, 72 h, 2 μg/mL, mean of both replicates, growth (% of control)
[7] = 72 h treatment, read-out: IC50, P. falciparum

CCO[C@@H]1[C@@H](OC)[C@H](C)O[C@@H](O[C@@H]2C[C@H]3CC[C@@H]4[C@@H](C=C5C(=O)[C@H](C)[C@@H](O)CCC[C@H](CC)OC(=O)C[C@H]54)[C@@H]3C2)[C@@H]1OC [3-Ethoxy-5,6-dihydrospinosyn J pseudoaglycone]
IC50 [1, 4]: > 1 µM | Screen (P. falciparum) ([1]; library screen at 2 μg/mL, 3D7, 72 h, DD from the 120 h timepoint): I

CC[C@H](C)[C@H]1OC(=O)[C@H](Cc2ccccc2)N(C)C(=O)[C@@H](C(C)C)OC(=O)[C@H](Cc2ccccc2)N(C)C(=O)[C@@H](C(C)C)OC(=O)[C@H](Cc2ccccc2)N(C)C1=O [Beauvericin A]
IC50 ([1]; Plasmodium falciparum, 3D7, 72 h treatment, read-out: IC50, P. falciparum): 0.33 µM | IC50 [1, 5]: 0.326 ± 0.095 µM

CC[C@H]1CCC[C@H](O)[C@@H](C)C(=O)C2=C[C@@H]3[C@@H](C=C(C)[C@@H]4C[C@@H](O[C@@H]5O[C@@H](C)[C@H](OC)[C@@H](OC)[C@H]5OC)C[C@@H]34)[C@@H]2CC(=O)O1 [Spinosyn D pseudoaglycone]
IC50 [1, 4]: > 1 µM

Cc1cc(=O)n2c3c(c4c(cc13)c(CO)cc(=O)n4C)OC2 [Nybomycin]
2) Growth (%) at 120 h [2]: 16.54% | 3) Fold change (72 h/120 h) [2]: 1.9 | 1) Growth (%) at 72 h ([1]; P. falciparum, 2 μg/mL, 72 h): 31.94% | Mean [1, 6]: 31.94

CC(=O)O[C@H]1C[C@@]2(C)[C@@H](CC[C@H]3[C@@]4(C)C=CC(=O)[C@@H](C)[C@@H]4[C@H](OC(C)=O)C(=O)[C@@]32C)/C1=C(\CCC=C(C)C)C(=O)O [Helvolic acid]
3) Fold change (72 h/120 h) [2]: 7.0 | activity at 2 µg/mL [2]: 8.14% | activity at 2 µg/mL [1]: 56.7%

O=C(O)c1cccc(C(=O)O)n1 [Dipicolinic acid]
percent parasite growth at 2 µg/mL ([3]; library screen at 2 μg/mL, % growth, replicate 1, read-out: Tg_72h_%Growth_Rep1): 112% | percent parasite growth at 2 µg/mL ([3]; library screen at 2 μg/mL, % growth, replicate 2, read-out: Tg_72h_%Growth_Rep2): 89.5%

CCC[C@@H]1C[C@@H](C(=O)N[C@@H]([C@H]2O[C@H](SC)[C@H](O)[C@@H](O)[C@H]2O)[C@@H](C)O)N(C)C1 [Lincomycin, reference compound]
3) Fold change (72 h/120 h) [2]: 3.8 | activity at 2 µg/mL [2]: 14.1% | activity at 2 µg/mL [1]: 54.4%

CN(C)[C@@H]1C(O)=C(C(N)=O)C(=O)[C@@]2(O)C(O)=C3C(=O)c4c(O)cccc4[C@@](C)(O)[C@H]3[C@H](O)[C@@H]12 [Oxytetracycline, reference compound]
3) Fold change (72 h/120 h) [2]: 3.1 | activity at 2 µg/mL [2]: 15.2% | activity at 2 µg/mL [1]: 47.4%

4-O-methylammocidin
2) Growth (%) at 120 h [2]: 13.10% | 3) Fold change (72 h/120 h) [2]: 3.3 | 1) Growth (%) at 72 h ([1]; P. falciparum, 2 μg/mL, 72 h): 43.16%

Milbemycin oxime [reference compound]
2) Growth (%) at 120 h [2]: 3.08% | 3) Fold change (72 h/120 h) [2]: 7.7 | 1) Growth (%) at 72 h ([1]; P. falciparum, 2 μg/mL, 72 h): 23.75%

CN(C)c1ccc(O)c2c1C[C@H]1C[C@H]3[C@H](N(C)C)C(O)=C(C(N)=O)C(=O)[C@@]3(O)C(O)=C1C2=O [Minocycline HCl, reference compound]
Mean [3]: 21.66 | Replicate 1 [3]: 5.81 | Replicate 2 [3]: 37.51

CN[C@@H]1C[C@H]2O[C@@](C)([C@@H]1OC)n1c3ccccc3c3c4c(c5c6ccccc6n2c5c31)C(=O)NC4=O [Oxostaurosporine, 7-]
Mean [3]: 37.90 | Replicate 1 [3]: 57.26 | Replicate 2 [3]: 18.54

COC(=O)C1=CO[C@@H](C)[C@@H]2CN3CCc4c([nH]c5cc(OC)c(OC)cc45)[C@@H]3C[C@H]12 [Isoreserpiline]
2) Growth (%) at 120 h [2]: 4.30% | 3) Fold change (72 h/120 h) [2]: 5.7 | 1) Growth (%) at 72 h ([1]; P. falciparum, 2 μg/mL, 72 h): 24.60%

COC(=O)c1ccc(CCCCCCCCCCc2ccc(C(=O)OC)nc2)cn1 [Penicolinate A]
Mean [3]: 44.53 | Replicate 1 [3]: 16.04 | Replicate 2 [3]: 73.01

CCO[C@@H]1[C@@H](OC)[C@H](C)O[C@@H](O[C@@H]2C[C@H]3CC[C@@H]4[C@@H](C=C5C(=O)[C@H](C)[C@@H](O[C@H]6CC[C@H](N(C)C)[C@@H](C)O6)CCC[C@H](CC)OC(=O)C[C@H]54)[C@@H]3C2)[C@@H]1OC [3-Ethoxy-5,6-dihydrospinosyn J]
IC50 [1, 4]: 0.42 ± 0.22 µM

Thiocillin III
IC50 [1, 4]: 0.11 ± 0.006 µM | IC50 [1, 7]: < 0.2 µM

CCO[C@@H]1[C@@H](OC)[C@H](C)O[C@@H](O[C@H]2C[C@H]3[C@@H]4C=C5C(=O)[C@H](C)[C@@H](O)CCC[C@H](CC)OC(=O)C[C@H]5[C@@H]4C=C(C)[C@@H]3C2)[C@@H]1OC [3-Ethoxyspinosyn L pseudoaglycone]
IC50 [1, 4]: > 1 µM

CCCCCC(=O)O[C@H]1[C@H](C)O[C@@H](O[C@H]2[C@H](N(C)C)[C@@H](O)[C@H](O[C@H]3[C@@H](CC=O)C[C@@H](C)[C@@H](O)/C=C/C=C/C[C@@H](C)OC(=O)C[C@@H](O)[C@@H]3OC)O[C@@H]2C)C[C@@]1(C)O [Leucomycin A13]
2) Growth (%) at 120 h [2]: 9.02% | 3) Fold change (72 h/120 h) [2]: 3.7 | 1) Growth (%) at 72 h ([1]; P. falciparum, 2 μg/mL, 72 h): 33.20%

Bischloroanthra-benzoxocinone
Mean [1, 6]: 31.15

Ikarugamycin
Mean [1, 6]: 48.31

CO[C@@H]1[C@@H](O[C@@H]2O[C@H](C)[C@@H](O[C@H]3C[C@@](C)(O)[C@@H](OC(=O)CC(C)C)[C@H](C)O3)[C@H](N(C)C)[C@H]2O)[C@@H](CC=O)C[C@@H](C)[C@@H](O)/C=C/C=C/C[C@@H](C)OC(=O)C[C@H]1O [Leucomycin A1]
2) Growth (%) at 120 h [2]: 11.56% | 3) Fold change (72 h/120 h) [2]: 5.1 | 1) Growth (%) at 72 h ([1]; P. falciparum, 2 μg/mL, 72 h): 58.63%

CCC[C@@H]1C[C@@H](C(=O)N[C@@H]([C@H]2O[C@H](SC)[C@H](O)[C@@H](O)[C@H]2O)[C@H](C)Cl)N(C)C1 [Clindamycin hydrochloride, reference compound]
percent parasite growth at 2 µg/mL ([3]; read-out: Tg_72h_%Growth_Rep1): 21.7% | percent parasite growth at 2 µg/mL ([3]; read-out: Tg_72h_%Growth_Rep2): 28.6%

CC[C@H](C)[C@H]1O[C@]2(CC[C@@H]1C)C[C@@H]1C[C@@H](C/C=C(\C)[C@@H](O[C@H]3C[C@H](OC)[C@@H](O)[C@H](C)O3)[C@@H](C)/C=C/C=C3\CO[C@@H]4[C@H](O)C(C)=C[C@@H](C(=O)O1)[C@]34O)O2 [Ivermectin B1a monosaccharide]
Mean [1]: 49.58

CC1=C[C@H]2[C@H](O)[C@H](O)CC[C@H]2[C@@](C)(C(O)=C2C(=O)CNC2=O)[C@@H]1CCC(C)C(O)/C(C)=C/CC(O)/C=C/C(C)C(O)/C=C/CC(O)/C(C)=C/CC(O)CC1CCCN1C(=N)N (stereo partly drawn) [Lydicamycin]
Mean [1, 6]: 36.70

CC1=C[C@H]2C(=O)O[C@H]3C[C@@H](C/C=C(\C)C[C@@H](C)/C=C/C=C4\CO[C@H]([C@@H]1O)[C@@]42O)O[C@]1(C3)C[C@H](O)[C@H](C)[C@@H](/C(C)=C/C(C)C)O1 [Nemadectin]
2) Growth (%) at 120 h [2]: 11.78% | 3) Fold change (72 h/120 h) [2]: 1.9 | 1) Growth (%) at 72 h ([1]; P. falciparum, 2 μg/mL, 72 h): 21.98% | Mean [1, 6]: 21.98

CCCC[C@H](C)[C@@H]1CC(=O)N[C@@H](Cc2ccccc2)C(=O)N[C@@H](C)C(=O)N[C@H]([C@@H](C)CC)C(=O)O1 [Beauveriolide III]
IC50 [1, 5]: > 1 µM

Oc1cc(O)cc(O)c1 [Phloroglucinol]
3) Fold change (72 h/120 h) [2]: 3.9 | activity at 2 µg/mL [2]: 13.2% | activity at 2 µg/mL [1]: 51.2%

Methylcanidine
2) Growth (%) at 120 h [2]: 11.61% | 3) Fold change (72 h/120 h) [2]: 1.8 | 1) Growth (%) at 72 h ([1]; P. falciparum, 2 μg/mL, 72 h): 21.12% | Mean [1, 6]: 21.12

CC[C@H]1O[C@]2(CC[C@@H]1C)C[C@@H]1C[C@@H](C/C=C(\C)C[C@@H](C)/C=C/C=C3\CO[C@@H]4C(=NO)C(C)=C[C@@H](C(=O)O1)[C@]34O)O2 [Milbemycin A4 oxime]
2) Growth (%) at 120 h [2]: 12.31% | 3) Fold change (72 h/120 h) [2]: 1.8 | 1) Growth (%) at 72 h ([1]; P. falciparum, 2 μg/mL, 72 h): 22.48% | Mean [1, 6]: 22.48

C/C=C(/NC(=O)c1csc(-c2csc(-c3ccc4c(n3)-c3csc(n3)C(C(C)OC)NC(=O)c3csc(n3)C(C(C)(C)O)NC(=O)c3csc(n3)/C(=C\C)NC(=O)C(C(C)O)NC(=O)c3csc-4n3)n2)n1)C(=O)NCC(C)O (stereo not drawn) [Thiocillin II]
IC50 [1, 4]: 0.161 ± 0.038 µM | IC50 [1, 7]: < 0.2 µM

CC1=C[C@H]2C(=O)O[C@H]3C[C@@H](C/C=C(\C)C[C@@H](C)/C=C/C=C4\CO[C@H]([C@@H]1O)[C@@]42O)O[C@@]1(CC[C@H](C)[C@@H](C)O1)C3 [Milbemycin A3]
2) Growth (%) at 120 h [2]: 17.63% | 3) Fold change (72 h/120 h) [2]: 1.4 | 1) Growth (%) at 72 h ([1]; P. falciparum, 2 μg/mL, 72 h): 24.47% | Mean [1, 6]: 24.47

CN=C1NC(=O)[C@H]([C@H](C)c2c[nH]c3ccccc23)O1 [Indolmycin]
2) Growth (%) at 120 h [2]: 17.39% | 3) Fold change (72 h/120 h) [2]: 2.6 | 1) Growth (%) at 72 h ([1]; P. falciparum, 2 μg/mL, 72 h): 44.88%

CC[C@H]1/C=C/C=C/C[C@@H](C)[C@H](O)[C@@](C)(O)C(=O)[C@@H](C)[C@H](O)[C@@H](C)C(=O)[C@@H](C)[C@H](O)[C@@H](C)/C=C/C(=O)O[C@H]2C[C@@]3(CC[C@H](C)[C@H](C[C@@H](C)O)O3)O[C@@H](CC1)[C@H]2C [Oligomycin D]
2) Growth (%) at 120 h [2]: 14.87% | 3) Fold change (72 h/120 h) [2]: 1.5 | 1) Growth (%) at 72 h ([1]; P. falciparum, 2 μg/mL, 72 h): 21.67% | Mean [1, 6]: 21.67

CCCC(=O)O[C@H]1[C@H](C)O[C@@H](O[C@H]2[C@H](N(C)C)[C@@H](O)[C@H](O[C@H]3[C@@H](CC=O)C[C@@H](C)[C@@H](O)/C=C/C=C/C[C@@H](C)OC(=O)C[C@@H](O)[C@@H]3OC)O[C@@H]2C)C[C@@]1(C)O [Leucomycin A5]
2) Growth (%) at 120 h [2]: 12.18% | 3) Fold change (72 h/120 h) [2]: 5.4 | 1) Growth (%) at 72 h ([1]; P. falciparum, 2 μg/mL, 72 h): 66.05%

CCO[C@@H]1[C@@H](OC)[C@H](C)O[C@@H](O[C@H]2C[C@H]3[C@@H]4C=C5C(=O)[C@H](C)[C@@H](O[C@H]6CC[C@H](N(C)C)[C@@H](C)O6)CCC[C@H](CC)OC(=O)C[C@H]5[C@@H]4C=C(C)[C@@H]3C2)[C@@H]1OC [3-Ethoxyspinosyn L]
IC50 [1, 4]: 0.57 ± 0.28 µM
